Source: PMC10294875, “Ether Derivatives of Naringenin and Their Oximes as Factors Modulating Bacterial Adhesion” (Antibiotics, 2023)
In brackets after ≈: the same amount, converted by molar mass.

Key:
HT-29 cell line = assay: SRB assay, antiproliferative activity against HT-29; format: cell-based, human; settings: for IC50: Homo sapiens; for cytotoxic / antiproliferative effect against HT-29 (in words): SRB, tested concentration range 1–100 µg/mL
Method: (§1) The human adenocarcinoma cell line, HT-29 (ATCC HTB-38), was cultured in αMEM medium (IITD PAN) supplemented with 10% fetal bovine serum, FBS (Sigma-Aldrich, Taufkirchen, Germany), 100 U/mL penicillin, 100 µg/mL streptomycin antibiotic solution (Sigma-Aldrich, Taufkirchen, Germany), and 2 mM glutamine solution (Sigma-Aldrich, Taufkirchen, Germany). Cells from less than 20 passages were used for the study. In turn, preadipocytes from mouse embryos with the morphology of fibroblast cells, line 3T3-L1 (ATCC CL-173), were cultured in DMEM high-glucose medium (Life Technologies Corporation, Carlsbad, CA, USA) with the same supplements as above. Cells from less than 14 passages were used for the study. Both tested cell lines were grown at 37 °C in 5% CO2.
(§2) The effect of O-alkyl derivatives of naringenin and their oximes on eukaryotic cells was checked using a slightly modified SRB test described earlier. Firstly, HT-29 (1 × 10^5 cells/mL) and 3T3-L1 (5 × 10^4 cells/mL) cell lines were incubated in adherent microtiter plates under the conditions described above. The cells were then treated for 2 h with the tested compounds 1a–10a and 1b–10b at concentrations of 1, 5, 10, 25, 50, 75, and 100 µg/mL each. After this time, the medium was removed and replaced with one containing 50% (wt/vol) trichloroacetic acid (TCA; Sigma-Aldrich, Taufkirchen, Germany). Following 1 h of incubation at 4 °C, the plate was rinsed with water, and then an acidic solution of 0.4% sulforhodamine B (SRB) (Sigma-Aldrich, Taufkirchen, Germany), was added to the dried wells and incubated in the dark for half an hour. At the end of this time, the SRB solution was replaced by 1% (vol/vol) acetic acid, and the stained protein precipitate was dissolved in 10 mM Tris base solution (pH 10.5). Absorbance was measured at 560 nm in a plate reader (GloMax Discover Microplate Reader, Promega).
(§3) The cytotoxic effect of O-alkyl derivatives of naringenin and their oximes on eukaryotic cells was expressed as the concentration of the tested compounds at which 50% growth inhibition of the tested cell lines was observed. Values were presented in the form of the survival index (SI)–IC50. All determinations were repeated in three independent experiments, each performed in three technical replicates. Moreover, the effect of DMSO (Sigma-Aldrich, Taufkirchen, Germany), the solvent present in all the initial solutions of the tested compounds, on the growth of the cell lines used in the study was also verified.

3T3-L1 cell line = assay: SRB assay, antiproliferative activity against 3T3-L1; format: cell-based, mouse; settings: for IC50: Mus musculus; for cytotoxic / antiproliferative effect against 3T3-L1 (in words): SRB, tested concentration range 1–100 µg/mL
Method: as §1, §2, §3

[1] = test system: Escherichia coli K12 (ATCC 10798); assay: Adhesion assay, static conditions: E. coli to HT-29 cell line; format: cell-based
Method: (§4) The study used two reference strains, Escherichia coli K12 (ATCC 10798) and Enterococcus faecalis (ATCC 29212), obtained from the American Type Culture Collection. Both strains were stored in trypticase soy broth (TSB; OXOID, Basingstoke, UK) with the addition of 30% glycerol at −70 °C in the museum resources of the Department of Microbiology at the Wroclaw Medical University.
(§5) For studies determining the interaction of bacteria with eukaryotic cells, suspensions of the tested strains were prepared in Luria broth (LB, Becton, Dickinson and Company, USA) medium with a bacterial density of 6 × 10^8 CFU/mL.
(§6) The adhesion ability of the tested bacterial strains to HT-29 and 3T3-L1 cell lines was determined by an in vitro adhesion assay as described previously. Eukaryotic cells were infected with prokaryotic cells in the presence of the examined compounds in pre-selected concentrations at an MOI (multiplicity of infection) ratio of 50. Cells were exposed to the tested strains and compounds for 2 h. After this time, unbound bacteria were removed by washing with PBS (Life Technologies Corporation, Carlsbad, CA, USA). The lysates acquired by cell lysis (0.5% Triton X-100 in LB): 90 min, 37 °C, 5% CO2 atmosphere, were then seeded onto TSA and MC media for E. faecalis and E. coli, respectively. The assays were performed in at least three independent experiments (cells from subsequent passages), each in triplicate. A control without tested compounds was set for each strain.

[2] = test system: Enterococcus faecalis (ATCC 29212); assay: Adhesion assay, static conditions: E. faecalis to 3T3-L1 cell line; format: cell-based
Method: as §4, §5, §6

[3] = test system: Escherichia coli K12 (ATCC 10798); assay: Adhesion assay, static conditions: E. coli to 3T3-L1 cell line; format: cell-based
Method: as §4, §5, §6

[4] = 2 h incubation, SRB assay, HT-29
[5] = 2 h incubation, SRB assay, 3T3-L1

SMILES | IC50 (HT-29 cell line; [4]) [µg/mL] | IC50 (3T3-L1 cell line; [5]) [µg/mL] | cytotoxic / antiproliferative effect against HT-29 (in words) (HT-29 cell line) | cytotoxic / antiproliferative effect against 3T3-L1 (in words) (3T3-L1 cell line) | further results
CCCCCCOc1ccc([C@@H]2CC(=NO)c3c(O)cc(OCCCCCC)cc3O2)cc1 [Compound 2b, 7,4’-di-O-hexylnaringenin oxime] | > 100 | > 100 |  |  | 
CCCCCCCOc1ccc([C@@H]2CC(=NO)c3c(O)cc(OCCCCCCC)cc3O2)cc1 [Compound 4b, 7,4’-di-O-heptylnaringenin oxime] | 43.4 (≈ 89.6 µM) | > 100 |  |  | adhesion of E. coli to HT-29 higher than in the control ([1]; 25 µg/mL): 17 fold; adhesion of E. coli to HT-29 higher than in the control ([1]; 50 µg/mL): 5 fold; level of adherence of E. coli to HT-29 ([1]; 1–10 µg/mL or 75–100 µg/mL): very low
CCCCCCCCCOc1cc(O)c2c(c1)O[C@H](c1ccc(O)cc1)CC2=NO [Compound 7b, 7-O-nonylnaringenin oxime] | 57.8 (≈ 140 µM) | 41.6 (≈ 101 µM) | cytotoxic effects |  | effect on adhesion of E. faecalis to 3T3-L1 (in words) [2]: often actually limited the attachment
CCCCCCCOc1cc(O)c2c(c1)O[C@H](c1ccc(O)cc1)CC2=NO [Compound 3b, 7-O-heptylnaringenin oxime] | 29.1 (≈ 75.6 µM) | 32.1 (≈ 83.3 µM) | cytotoxic effects |  | 
CCCCCCCCOc1cc(O)c2c(c1)O[C@H](c1ccc(O)cc1)CC2=O [Compound 5a, 7-O-octylnaringenin] | 38.4 (≈ 99.7 µM) | 20.1 (≈ 52.3 µM) | antiproliferative activity | cytotoxic activity | 
CCCCCCCOc1ccc([C@@H]2CC(=O)c3c(O)cc(OCCCCCCC)cc3O2)cc1 [Compound 4a, 7,4’-di-O-heptylnaringenin] | > 100 | > 100 | no effect | no effect | 
CCCCCCCCCCCOc1cc(O)c2c(c1)O[C@H](c1ccc(O)cc1)CC2=O [Compound 9a, 7-O-undecylnaringenin] | > 100 | 80.6 (≈ 189 µM) |  | cytotoxic activity | effect on adhesion of E. faecalis to 3T3-L1 (in words) [2]: often actually limited the attachment
CCCCCCCCOc1cc(O)c2c(c1)O[C@H](c1ccc(O)cc1)CC2=NO [Compound 5b, 7-O-octylnaringenin oxime] | 49.8 (≈ 125 µM) | 49.9 (≈ 125 µM) | cytotoxic effects |  | 
CCCCCCOc1ccc([C@@H]2CC(=O)c3c(O)cc(OCCCCCC)cc3O2)cc1 [Compound 2a, 7,4’-di-O-hexylnaringenin] | > 100 | > 100 | no effect | no effect | 
CCCCCCCCCCCOc1cc(O)c2c(c1)O[C@H](c1ccc(O)cc1)CC2=NO [Compound 9b, 7-O-undecylnaringenin oxime] | > 100 | > 100 |  |  | effect on adhesion of E. faecalis to 3T3-L1 (in words) [2]: often actually limited the attachment
CCCCCCCCCCCOc1ccc([C@@H]2CC(=NO)c3c(O)cc(OCCCCCCCCCCC)cc3O2)cc1 [Compound 10b, 7,4’-di-O-undecylnaringenin oxime] | 48.2 (≈ 80.9 µM) | > 100 |  |  | 
CCCCCCCCOc1ccc([C@@H]2CC(=NO)c3c(O)cc(OCCCCCCCC)cc3O2)cc1 [Compound 6b, 7,4’-di-O-octylnaringenin oxime] | > 100 | > 100 |  |  | 
CCCCCCCCCCCOc1ccc([C@@H]2CC(=O)c3c(O)cc(OCCCCCCCCCCC)cc3O2)cc1 [Compound 10a, 7,4’-di-O-undecylnaringenin] | > 100 | > 100 | no effect | no effect | bacterial adhesion disturbed (decrease), E. coli to 3T3-L1 ([3]; regardless of the concentration used): ≈ 2 fold
CCCCCCCCCOc1ccc([C@@H]2CC(=O)c3c(O)cc(OCCCCCCCCC)cc3O2)cc1 [Compound 8a, 7,4’-di-O-nonylnaringenin] | > 100 | > 100 | no effect | no effect | 
CCCCCCCOc1cc(O)c2c(c1)O[C@H](c1ccc(O)cc1)CC2=O [Compound 3a, 7-O-heptylnaringenin] | 28.7 (≈ 77.5 µM) | 25.6 (≈ 69 µM) | antiproliferative activity | cytotoxic activity | 
CCCCCCCCCOc1cc(O)c2c(c1)O[C@H](c1ccc(O)cc1)CC2=O [Compound 7a, 7-O-nonylnaringenin] | 46.7 (≈ 117 µM) | 22.2 (≈ 55.8 µM) | antiproliferative activity | cytotoxic activity | effect on adhesion of E. faecalis to 3T3-L1 (in words) [2]: often actually limited the attachment
CCCCCCOc1cc(O)c2c(c1)O[C@H](c1ccc(O)cc1)CC2=NO [Compound 1b, 7-O-hexylnaringenin oxime] | 38.4 (≈ 103 µM) | 35 (≈ 94.2 µM) | cytotoxic effects |  | attachment of E. coli to 3T3-L1 decreased to ([3]; 1 µg/mL): 63%; adherence of E. coli to 3T3-L1 ([3]; 25 µg/mL): practically not observed
CCCCCCOc1cc(O)c2c(c1)O[C@H](c1ccc(O)cc1)CC2=O [Compound 1a, 7-O-hexylnaringenin] | 25.4 (≈ 71.2 µM) | 25.8 (≈ 72.4 µM) | antiproliferative activity | cytotoxic activity | IC50 lower than compound 7a (ratio) (HT-29 cell line; HT-29, 1a vs 7a): 1.8 times
CCCCCCCCOc1ccc([C@@H]2CC(=O)c3c(O)cc(OCCCCCCCC)cc3O2)cc1 [Compound 6a, 7,4’-di-O-octylnaringenin] | > 100 | > 100 | no effect | no effect | 
ON=C1C[C@@H](c2ccc(O)cc2)Oc2cc(O)cc(O)c21 [NGOX, naringenin oxime, reference compound] |  |  |  |  | IC50 HT-29 (HT-29 cell line; [4]): >100 µg/mL; IC50 3T3-L1 (3T3-L1 cell line; [5]): >100 µg/mL
